The results in this text go back to patent publication US9718822B2, “Macrocyclic compounds as Trk kinase inhibitors” (Array BioPharma, Inc., priority 2010, dated 2017).

Chain of His-tagged recombinant human TrkA (cytoplasmic domain) (P04629 440-796): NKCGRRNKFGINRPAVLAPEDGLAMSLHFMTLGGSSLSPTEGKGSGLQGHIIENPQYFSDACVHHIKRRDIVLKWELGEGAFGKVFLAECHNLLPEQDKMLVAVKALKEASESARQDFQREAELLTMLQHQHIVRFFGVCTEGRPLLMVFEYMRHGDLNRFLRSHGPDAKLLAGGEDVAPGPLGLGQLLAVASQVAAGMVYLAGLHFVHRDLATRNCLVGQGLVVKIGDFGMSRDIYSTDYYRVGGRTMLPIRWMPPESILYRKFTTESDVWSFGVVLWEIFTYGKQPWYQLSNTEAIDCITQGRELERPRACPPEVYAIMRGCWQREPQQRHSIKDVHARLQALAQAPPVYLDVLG

One assay concerns the target His-tagged recombinant human TrkA (cytoplasmic domain) (Homo sapiens (Human), UniProt P04629). Description: TrkA Binding Assay (LanthaScreen Eu Kinase Binding Assay).
Details: not given
The protocol: The ability of a compound to bind to TrkA was measured by Invitrogen's LanthaScreen™ Eu Kinase Binding Assay. […] After a 60-minute incubation at 22° C., the reaction was measured using the EnVision via TR-FRET dual wavelength detection, and the POC was calculated from the emission ratio. The compound dose response data was fit to a 4-parameter logistic model and IC50 was defined as the concentration of compound at 50 POC.
For orientation: In TR-FRET formats the signal depends on donor and acceptor labels being close together.
Usually IC50 stands for the concentration at which inhibition is half-maximal. Turning to `O=C1NC[C@@H](O)COc2ccc(F)cc2[C@@H]2C[C@@H](O)CN2c2ccn3ncc1c3n2` [Example 44-B, (4R,6S,15R)-9-fluoro-4,15-dihydroxy-13-oxa-2,17,21,22,25-pentaazapentacyclo [17.5.2.0^2,6.0^7,12.0^22,26]hexacosa-1(25),7(2),8,10,19(26),20,23-heptaen-18-one], the IC50 lay within 1 to 100 nM.

With `O=C1NCCCOc2ccc(F)cc2[C@H]2C[C@@H](O)CN2c2ccn3ncc1c3n2` [Example 42, (4R,6R)-9-fluoro-4-hydroxy-13-oxa-2,17,21,22,25-pentaazapentacyclo [17.5.2.0^2,6.0^7,12.0^22,26]hexacosa-1(25),7(12),8,10,19(26),20,23-heptaen-18-one], the IC50 fell in the range of 1 to 100 nM.

As for `C[C@H]1CNC(=O)c2cnn3ccc(nc23)N2CCC[C@@H]2c2cc(F)cn(c2=O)C1` [Example 35, (6R,13S)-9-fluoro-13-methyl-2, 11, 15,19,20,23-hexaazapentacyclo [15.5.2.1^7,11.0^2,6.0^20,24]pentacosa-1(23),7,9,17(24),18,21-hexaene-16,25-dione], the IC50 is 1 to 100 nM.

Take `CC1(C)CNC(=O)c2cnn3ccc(nc23)N2CCC[C@@H]2c2cc(F)cnc2OC1` [Example 36, (6R)-9-fluoro-15,15-dimethyl-13-oxa-2,11,17,21,22,25-hexaazapentacyclo [17.5.2.0^2,6.0^7,12.0^22,26]hexacosa-1(25),7,9,11,19(26),20,23-heptaen-18-one]: the IC50 was in the range of 1 to 100 nM.

`O=C1NC[C@@H](O)COc2ccc(F)cc2[C@H]2C[C@@H](O)CN2c2ccn3ncc1c3n2` [Example 44, (4R,6R,15R)-9-fluoro-4,15-dihydroxy-13-oxa-2,17,21,22,25-pentaazapentacyclo [17.5.2.0^2,6.0^7,12.0^22,26]hexacosa-1(25),7(12),8,10,19(26),20,23-heptaen-18-one]: the IC50 fell in the range of 1 to 100 nM.

As to `CC1(C)CNC(=O)c2cnn3ccc(nc23)N2CCC[C@@H]2c2cc(F)cn(c2=O)C1` [Example 40, (6R)-9-fluoro-13,13-dimethyl-2,11,15,19,20,23-hexaazapentacyclo [15.5.2.1^7,11.0^2,6.0^20,24]pentacosa-1(23),7,9,17(24),18,21-hexaene-16,25-dione], the IC50 was in the range of 1 to 100 nM.

With `O=C1NCCOc2ccc(F)cc2[C@H]2C[C@@H](O)CN2c2ccn3ncc1c3n2` [Example 43, (4R,6R)-9-fluoro-4-hydroxy-13-oxa-2,16,20,21,24-pentaazapentacyclo [16.5.2.0^2,6.0^7,12.0^21,25]pentacosa-1(24),7,9,11,18(25),19,22-heptaen-17-one], the IC50 lay within 1 to 100 nM.

The assay is the same for the next values; noted with them: averaged IC50 values; TR-FRET, 60-minute incubation at 22° C., 2% DMSO final.
Consider `O=C1NCCCOc2ccc(F)cc2[C@@H]2C[C@@H](O)CN2c2ccn3ncc1c3n2` [Example 42-B, (4R,6S)-9-fluoro-4-hydroxy-13-oxa-2,17,21,22,25-pentaazapentacyclo [17.5.2.0^2,6.0^7,12.0^22,26]hexacosa-1(25),7(12),8,10,19(26),20,23-heptaen-18-one], for which the IC50 fell in the range of 100 to 3000 nM.

With `O=C1NC[C@H](O)COc2ccc(F)cc2C2CC(F)(F)CN2c2ccn3ncc1c3n2` (single isomer, unassigned; diastereomer 1) [45 Diastereomer 1], the IC50 lay within 1 to 100 nM.

For the compound `O=C1NC[C@H](O)COc2ccc(F)cc2C2CC(F)(F)CN2c2ccn3ncc1c3n2` (single isomer, unassigned; diastereomer 2) [45 Diastereomer 2], the IC50 was in the range of 1 to 100 nM.

On to `O=C1NCCOc2ccc(F)cc2[C@@H]2C[C@@H](O)CN2c2ccn3ncc1c3n2` [Example 43-B, (4R,6S)-9-fluoro-4-hydroxy-13-oxa-2,16,20,21,24-pentaazapentacyclo [16.5.2.0^2,6.0^7,2.0^21,25]pentacosa-1(24),7,9,11,18(25),19,22-heptaen-17-one], for which the IC50 was 100 to 3000 nM.

On to `O=C1NC[C@H](O)COc2ccc(F)cc2[C@@H]2C[C@@H](O)CN2c2ccn3ncc1c3n2` [Example 41-B, (4R,6S,15S)-9-fluoro-4,15-dihydroxy-13-oxa-2,17,21,22,25-pentaazapentacyclo [17.5.2.0^2,6.0^7,12.0^22,26]hexacosa-1(25),7(12),8,10,19(26),20,23-heptaen-18-one], for which the IC50 is 100 to 3000 nM.

The target in another assay is histidine-tagged recombinant human TrkA, cytoplasmic domain (Homo sapiens (Human), UniProt P04629). Description: TrkA ELISA Assay. Further: 2.5 nM TrkA. It is filed as biochemical. As to conditions: read-out: TrkA Elisa Enzyme Assay IC50. The protocol: An enzyme-linked immunosorbant assay (ELISA) was used to assess TrkA kinase activity in the presence of inhibitors. Immulon 4HBX 384-well microtiter plates (Thermo part #8755) were coated with a 0.025 mg/mL solution of poly (Glu, Ala, Tyr; 6:3:1; Sigma P3899). […] The assay buffer consisted of 25 mM MOPS pH 7.5, 0.005% (v/v) Triton X-100 and 5 mM MgCl2. The reaction mixture was removed from the plate by washing with PBS containing 0.1% (v/v) Tween 20. The phosphorylated reaction product was detected using 0.2 μg/mL of a phosphotyrosine specific monoclonal antibody (clone PY20) conjugated to horseradish peroxidase in conjunction with the TMB Peroxidase Substrate System (KPL). After the addition of 1M phosphoric acid, the chromogenic substrate color intensity was quantitated via absorbance at 450 nm. IC50 values were calculated using either a 4 or 5-parameter logistic curve fit.
Chain of histidine-tagged recombinant human TrkA, cytoplasmic domain (P04629 440-796): as above
Table 1 provides averaged IC50 values for compounds of the invention when tested in this assay.
A general note: ELISA stands for enzyme-linked immunosorbent assay.
On to `O=C1NCCCNc2ncc(F)cc2[C@H]2CCCN2c2ccn3ncc1c3n2` [Example 13, (6R)-9-fluoro-2,11,13,17,21,22,25-heptaazapentacyclo[17.5.2.0^2,6.0^7,12.0^22,26]hexacosa-1(25),7,9,11,19(26),20,23-heptaen-18-one], for which the IC50 fell in the range of 1 to 100 nM.

As to `CCNC(=O)N1CCOc2ccc(F)cc2[C@H]2CCCN2c2ccn3ncc(c3n2)C1` [Example 29, (6R)—N-ethyl-9-fluoro-13-oxa-2,16,20,21,24-pentaazapentacyclo-[16.5.2.0^2,6.0^7,12.0^21,25]pentacosa-1(24),7,9,11,18(25),19,22-heptaene-16-carboxamide], the IC50 fell in the range of 1 to 100 nM.

With `CCNC(=O)N1CCCOc2ccc(F)cc2[C@H]2CCCN2c2ccn3ncc(c3n2)C1` [Example 28], the IC50 was in the range of 1 to 100 nM.

`CS(=O)(=O)N1CCOc2ccc(F)cc2[C@H]2CCCN2c2ccn3ncc(c3n2)C1` [Example 25, (6R)-9-fluoro-16-methanesulfonyl-13-oxa-2,16,20,21,24-pentaazapentacyclo[16.5.2.0^2,6.0^7,12.0^21,25]pentacosa-1(24),7,9,11,18(25),19,22-heptaene]: the half-maximal inhibitory concentration (IC50) lay in the range of 1 to 100 nM.

For `Fc1ccc2c(c1)[C@H]1CCCN1c1ccn3ncc(c3n1)CNCCO2` [Example 21, (6R)-9-fluoro-13-oxa-2,16,20,21,24-pentaazapentacyclo[16.5.2.0^2,6.0^7,12.0^21,25]pentacosa-1(24),7,9,11,18(25),19,22-heptaene], the IC50 fell in the range of 100 to 3000 nM.

As to `O=C1NCCNc2ncc(F)cc2[C@H]2CCCN2c2ccn3ncc1c3n2` [Example 12, (6R)-9-fluoro-2,11,13,16,20,21,24-heptaazapentacyclo[16.5.2.0^2,6.0^7,12.0^21,25]pentacosa-1(24),7,9,11,18(25),19,22-heptaen-17-one], the IC50 is 1 to 100 nM.

With `Fc1ccc2c(c1)[C@H]1CCCN1c1ccn3ncc(c3n1)CNCCCO2` [Example 24, (6R)-9-fluoro-13-oxa-2,17,21,22,25-pentaazapentacyclo[17.5.2.0^2,6.0^7,12.0^22,26]hexacosa-1(25),7,9,11,19(26),20,23-heptaene], the IC50 was 100 to 3000 nM.

For `O=C1NC[C@@H](F)Cn2cc(F)cc(c2=O)[C@H]2CCCN2c2ccn3ncc1c3n2` [Example 17, (6R,13R)-9,13-difluoro-2,11,15,19,20,23-hexaazapentacyclo[15.5.2.1^7,11.0^2,6.0^20,24]pentacosa-1(23),7,9,17(24),18,21-hexaene-16,25-dione], the IC50 was in the range of 1 to 100 nM.

Take `CS(=O)(=O)N1CCCOc2ccc(F)cc2[C@H]2CCCN2c2ccn3ncc(c3n2)C1` [Example 27, (6R)-9-fluoro-7-methanesulfonyl-13-oxa-2,17,21,22,25-pentaazapentacyclo[17.5.2.0^2,6.0^7,12.0^22,26]hexacosa-1(25),7,9,11,19(26),20,23-heptaene]: the IC50 fell in the range of 1 to 100 nM.

Regarding `CC(=O)N1CCOc2ccc(F)cc2[C@H]2CCCN2c2ccn3ncc(c3n2)C1` [Example 22, 1-[(6R)-9-fluoro-13-oxa-2,16,20,21,24-pentaazapentacyclo[16.5.2.0^2,6.0^7,12.0^21,25]pentacosa-1(24),7,9,11,18(25),19,22-heptaen-16-yl]ethan-1-one], the IC50 is 1 to 100 nM.
